Columns and labels:
[1] = tested on: A549-ACE2 infected with SARS-CoV-2; assay: cell count relative to DMSO; higher = less toxic; settings: 24 h
Caco-2 [2] = assay: cell viability relative to DMSO; higher = less toxic; settings: 72 h
Calu-3 [3] = assay: as above; settings: 72 h
HepG2 [4] = assay: as above; settings: 72 h
U2OS [5] = assay: as above; settings: 72 h
Vero E6 [6] = assay: as above; settings: 72 h
[7] = tested on: A549-ACE2 infected with SARS-CoV-2; assay: SARS-CoV-2 infection rate relative to DMSO; higher = more infection; settings: 24 h
A549-ACE2 [8] = assay: drug-induced phospholipidosis relative to tamoxifen; higher = more phospholipidosis
[9] = tested on: A549-ACE2 infected with SARS-CoV-2; assay: morphology score (similarity to uninfected cells); higher = more like uninfected cells; settings: 24 h
Caco-2 [10] = assay: relative viability EC50 (midpoint between 100% and the lowest measured viability); higher = less toxic; settings: 72 h
Calu-3 [11] = assay: as above; settings: 72 h
HepG2 [12] = assay: as above; settings: 72 h
U2OS [13] = assay: as above; settings: 72 h
Vero E6 [14] = assay: as above; settings: 72 h
Caco-2 [15] = assay: drug sensitivity score (DSS) for viability; higher = more toxic; extreme values may be limits of the assay; settings: 72 h
Calu-3 [16] = assay: as above; settings: 72 h
HepG2 [17] = assay: as above; settings: 72 h
U2OS [18] = assay: as above; settings: 72 h
Vero E6 [19] = assay: as above; settings: 72 h
A549-ACE2 [20] = assay: phospholipidosis EC50; higher = less potent phospholipidosis inducer

NCCc1c[nH]c2ccc(C(N)=O)cc12 [5-carboxamidotryptamine]
Settings	SARS-CoV-2 infection rate, [7] [%]	cell count, [1] [%]	cell viability, Caco-2 [2] [%]	cell viability, Calu-3 [3] [%]	cell viability, HepG2 [4] [%]	cell viability, U2OS [5] [%]	cell viability, Vero E6 [6] [%]	morphology score, [9]
1 nM	–	–	97.8	93.2	105	101	98.8	–
10 nM	–	–	96.5	104	96.2	97.8	104	–
100 nM	–	–	102	96	95.2	99.1	103	–
0.3 µM	100	98	–	–	–	–	–	-0.09
1000 nM	–	–	102	104	102	98	97.4	–
3 µM	99	96	–	–	–	–	–	-0.06
10 µM	101	105	–	–	–	–	–	-0.11
10000 nM	–	–	98.7	102	98.9	99.5	97.2	–
30 µM	93	102	–	–	–	–	–	0.09

drug-induced phospholipidosis [%], A549-ACE2 [8]
Settings	0.3 µM	0.833333 µM	3.33333 µM	6.66667 µM	10 µM	30 µM
24 h	1.09	-2.6	-3.13	-2	-0.66	2.03
48 h	2.16	-0.39	0.18	-1.08	-0.13	2.67
72 h	3.22	-1.61	-0.768	-1.96	0.562	3.08

Settings	drug sensitivity score	relative viability EC50 [µM]
Caco-2 [10]	–	> 10
Caco-2 [15]	0	–
Calu-3 [11]	–	> 10
Calu-3 [16]	0	–
HepG2 [12]	–	> 10
HepG2 [17]	0	–
U2OS [13]	–	> 10
U2OS [18]	0	–
Vero E6 [14]	–	> 10
Vero E6 [19]	0	–

O=C1Cc2c([nH]c3ccc(Br)cc23)-c2ccccc2N1 [kenpaullone]
Settings	SARS-CoV-2 infection rate, [7] [%]	cell count, [1] [%]	cell viability, Caco-2 [2] [%]	cell viability, Calu-3 [3] [%]	cell viability, HepG2 [4] [%]	cell viability, U2OS [5] [%]	cell viability, Vero E6 [6] [%]	morphology score, [9]
1 nM	–	–	99.6	92.1	110	98.4	93.4	–
10 nM	–	–	93.2	95.1	96.2	98.9	93.6	–
100 nM	–	–	100	98.9	100	98.8	90.1	–
0.3 µM	106	103	–	–	–	–	–	0.06
1000 nM	–	–	102	113	108	104	101	–
3 µM	96	100	–	–	–	–	–	0.37
10 µM	94	85	–	–	–	–	–	0.47
10000 nM	–	–	96	101	100	82.3	115	–
30 µM	88	67	–	–	–	–	–	0.48

drug-induced phospholipidosis [%], A549-ACE2 [8]
Settings	0.3 µM	0.833333 µM	3.33333 µM	6.66667 µM	10 µM	30 µM
24 h	-0.53	-1.07	-1.23	1.24	-0.93	4.23
48 h	1.47	-0.14	1.75	3.52	2.75	2.49
72 h	2.92	0.874	5.13	6.52	5.66	9.54

Settings	drug sensitivity score	relative viability EC50 [µM]
Caco-2 [10]	–	> 10
Caco-2 [15]	0	–
Calu-3 [11]	–	> 10
Calu-3 [16]	0	–
HepG2 [12]	–	> 10
HepG2 [17]	0	–
U2OS [13]	–	> 10
U2OS [18]	0.3	–
Vero E6 [14]	–	> 10
Vero E6 [19]	0	–

O=C(OCC(O)CO)c1ccccc1Nc1ccnc2cc(Cl)ccc12 (stereo not drawn) [glafenine]
Settings	SARS-CoV-2 infection rate, [7] [%]	cell count, [1] [%]	cell viability, Caco-2 [2] [%]	cell viability, Calu-3 [3] [%]	cell viability, HepG2 [4] [%]	cell viability, U2OS [5] [%]	cell viability, Vero E6 [6] [%]	morphology score, [9]
1 nM	–	–	84.7	89.4	99.8	97.2	101	–
10 nM	–	–	95.9	100	81.1	102	90.5	–
100 nM	–	–	66.6	87.7	97.4	94.8	102	–
0.3 µM	94	103	–	–	–	–	–	0.2
1000 nM	–	–	89.5	106	91	98.2	86.9	–
3 µM	88	85	–	–	–	–	–	0.28
10 µM	97	115	–	–	–	–	–	0.42
10000 nM	–	–	95.7	94	94.3	89	107	–
30 µM	53	104	–	–	–	–	–	0.74

drug-induced phospholipidosis [%], A549-ACE2 [8]
Settings	0.3 µM	0.833333 µM	3.33333 µM	6.66667 µM	10 µM	30 µM
24 h	0.74	1.36	2	1.93	2.17	23.8
48 h	0.09	-3.04	0.5	3.25	3.8	23.1
72 h	-1.15	-3.87	-2.67	0.336	3.93	30.1

Settings	drug sensitivity score	relative viability EC50 [µM]
Caco-2 [10]	–	> 10
Caco-2 [15]	0	–
Calu-3 [11]	–	> 10
Calu-3 [16]	0	–
HepG2 [12]	–	> 10
HepG2 [17]	0	–
U2OS [13]	–	> 10
U2OS [18]	0	–
Vero E6 [14]	–	> 10
Vero E6 [19]	0	–

CN1[C@@H]2CC[C@H]1C[C@@H](OC(c1ccccc1)c1ccccc1)C2 [benztropine-mesylate]
Settings	SARS-CoV-2 infection rate [%]	cell count [%]	cell viability [%]	morphology score	phospholipidosis EC50 [µM]
A549-ACE2 [20], 24 h	–	–	–	–	8.44
A549-ACE2 [20], 48 h	–	–	–	–	9.6
A549-ACE2 [20], 72 h	–	–	–	–	9.86
Caco-2 [2], 1 nM	–	–	96.2	–	–
Caco-2 [2], 10 nM	–	–	98	–	–
Caco-2 [2], 100 nM	–	–	94.5	–	–
Caco-2 [2], 1000 nM	–	–	103	–	–
Caco-2 [2], 10000 nM	–	–	93	–	–
Calu-3 [3], 1 nM	–	–	101	–	–
Calu-3 [3], 10 nM	–	–	101	–	–
Calu-3 [3], 100 nM	–	–	109	–	–
Calu-3 [3], 1000 nM	–	–	116	–	–
Calu-3 [3], 10000 nM	–	–	94.2	–	–
HepG2 [4], 1 nM	–	–	103	–	–
HepG2 [4], 10 nM	–	–	102	–	–
HepG2 [4], 100 nM	–	–	103	–	–
HepG2 [4], 1000 nM	–	–	89	–	–
HepG2 [4], 10000 nM	–	–	92.1	–	–
U2OS [5], 1 nM	–	–	95.2	–	–
U2OS [5], 10 nM	–	–	98	–	–
U2OS [5], 100 nM	–	–	95.5	–	–
U2OS [5], 1000 nM	–	–	98.3	–	–
U2OS [5], 10000 nM	–	–	92.4	–	–
Vero E6 [6], 1 nM	–	–	99.4	–	–
Vero E6 [6], 10 nM	–	–	104	–	–
Vero E6 [6], 100 nM	–	–	103	–	–
Vero E6 [6], 1000 nM	–	–	97.5	–	–
Vero E6 [6], 10000 nM	–	–	93.8	–	–
[1], 0.3 µM	–	98	–	–	–
[1], 3 µM	–	112	–	–	–
[1], 10 µM	–	123	–	–	–
[1], 30 µM	–	120	–	–	–
[7], 0.3 µM	106	–	–	–	–
[7], 3 µM	60	–	–	–	–
[7], 10 µM	33	–	–	–	–
[7], 30 µM	12	–	–	–	–
[9], 0.3 µM	–	–	–	-0.15	–
[9], 3 µM	–	–	–	0.67	–
[9], 10 µM	–	–	–	0.82	–
[9], 30 µM	–	–	–	0.71	–

drug-induced phospholipidosis [%], A549-ACE2 [8]
Settings	0.3 µM	0.833333 µM	3.33333 µM	6.66667 µM	10 µM	30 µM
24 h	2.39	-1.85	12.3	31.1	63.2	94.2
48 h	3.49	2.96	8.82	25.8	58.8	103
72 h	4.91	3.92	10.9	27.1	59.7	107

Settings	drug sensitivity score	relative viability EC50 [µM]
Caco-2 [10]	–	> 10
Caco-2 [15]	0	–
Calu-3 [11]	–	> 10
Calu-3 [16]	0	–
HepG2 [12]	–	> 10
HepG2 [17]	0.2	–
U2OS [13]	–	> 10
U2OS [18]	0	–
Vero E6 [14]	–	> 10
Vero E6 [19]	0	–

Cc1cccc(/C=N/Nc2cc(N3CCOCC3)nc(OCCc3ccccn3)n2)c1 [STA-5326]
Settings	SARS-CoV-2 infection rate [%]	cell count [%]	cell viability [%]	morphology score	phospholipidosis EC50 [µM]
A549-ACE2 [20], 24 h	–	–	–	–	0.3
A549-ACE2 [20], 48 h	–	–	–	–	0.809
A549-ACE2 [20], 72 h	–	–	–	–	0.687
Caco-2 [2], 1 nM	–	–	91.2	–	–
Caco-2 [2], 10 nM	–	–	96.4	–	–
Caco-2 [2], 100 nM	–	–	94.7	–	–
Caco-2 [2], 1000 nM	–	–	78.9	–	–
Caco-2 [2], 10000 nM	–	–	60.8	–	–
Calu-3 [3], 1 nM	–	–	104	–	–
Calu-3 [3], 10 nM	–	–	104	–	–
Calu-3 [3], 100 nM	–	–	97.9	–	–
Calu-3 [3], 1000 nM	–	–	93.6	–	–
Calu-3 [3], 10000 nM	–	–	90.1	–	–
HepG2 [4], 1 nM	–	–	99.3	–	–
HepG2 [4], 10 nM	–	–	88.2	–	–
HepG2 [4], 100 nM	–	–	93	–	–
HepG2 [4], 1000 nM	–	–	26.2	–	–
HepG2 [4], 10000 nM	–	–	19.7	–	–
U2OS [5], 1 nM	–	–	97.6	–	–
U2OS [5], 10 nM	–	–	100	–	–
U2OS [5], 100 nM	–	–	95	–	–
U2OS [5], 1000 nM	–	–	91.3	–	–
U2OS [5], 10000 nM	–	–	75.1	–	–
Vero E6 [6], 1 nM	–	–	97.2	–	–
Vero E6 [6], 10 nM	–	–	104	–	–
Vero E6 [6], 100 nM	–	–	93.8	–	–
Vero E6 [6], 1000 nM	–	–	42.4	–	–
Vero E6 [6], 10000 nM	–	–	43.2	–	–
[1], 0.3 µM	–	104	–	–	–
[1], 3 µM	–	95	–	–	–
[1], 10 µM	–	106	–	–	–
[1], 30 µM	–	108	–	–	–
[7], 0.3 µM	51	–	–	–	–
[7], 3 µM	77	–	–	–	–
[7], 10 µM	91	–	–	–	–
[7], 30 µM	35	–	–	–	–
[9], 0.3 µM	–	–	–	-0.01	–
[9], 3 µM	–	–	–	-0.14	–
[9], 10 µM	–	–	–	0	–
[9], 30 µM	–	–	–	0.18	–

drug-induced phospholipidosis [%], A549-ACE2 [8]
Settings	0.3 µM	0.833333 µM	3.33333 µM	6.66667 µM	10 µM	30 µM
24 h	103	105	105	124	111	85.7
48 h	104	80.8	58.2	63.7	66	–
72 h	113	59.5	34.8	46.3	59.3	–

Settings	drug sensitivity score	relative viability EC50 [µM]
Caco-2 [15]	4.2	–
Calu-3 [11]	–	> 10
Calu-3 [16]	0	–
HepG2 [12]	–	0.308
HepG2 [17]	14.6	–
U2OS [13]	–	> 10
U2OS [18]	1.5	–
Vero E6 [14]	–	0.228
Vero E6 [19]	11.6	–

Reference: the supplement of paper PMC13380429
